The results in this text go back to US5686458A, “Quinazoline deriviates for treating peptic ulcer” (Yuhan Corporation, priority 1992, dated 1997).

For assay [1], the target named is T1, Proton Pump (H^+ /K^+ ATPase) (Oryctolagus cuniculus, UniProt P27112).
T1 construct: The microsomes thus obtained were used as an enzyme source of the in vitro enzyme reaction study of proton pump; from tissue; host or cells: rabbit stomach, mucosal scrapings, microsomes (180,000 g pellet)
Kind of assay: Inhibition of Proton Pump (H+/K+ ATPase) Activity, in vitro enzyme reaction (Experiment 1). In kind it is biochemical, New Zealand white rabbit. The following applies: for Effect ratio: IC50 of Omeprazole / IC50 of test compound; for IC50: K+-stimulated H+/K+ ATPase activity, rabbit gastric microsomes, pH 7.2, 37° C., 15 min prereaction, 30 min reaction, read-out: IC50 of test compound, inhibition (50%) of the proton pump activity. The protocol: A New Zealand white rabbit was killed by blowing its head and the stomach was taken out. The contents of the stomach were removed and the stomach walls were washed with was saline. The inner wall of the stomach was scratched out with a slide glass and the cells thus obtained were homogenized in 0.25M sucrose buffer by means of a Teflon-glass homogenizer. The homogenous solution was centrifuged at 10,000 g for 10 minutes and the supernatant was further centrifuged at 20,000 g for 20 minutes. The supernatant thus obtained was centrifuged at an ultra-high speed of 180,000 g for 1 hour. The pellets precipitated were collected by discarding the supernatant and suspended in 50 mM Tris-HCl buffer having pH 7.2. The suspension was dialyzed twice with the same buffer(of 1,000 times volume) for 3 hours and stored into liquid nitrogen.
The above centrifugation and dialysis were carried out at 4° C. The microsomes thus obtained were used as an enzyme source of the in vitro enzyme reaction study of proton pump.
The inhibitory effects of proton pump activity by the compounds of the present invention were measured by the in vitro enzyme reaction study. The proton pump activity stimulated by Mg^++ was used as a negative comparative group, and the activity stimulated by Mg^++ and K^+ was used as a positive comparative group. The comparative compound was omeprazole.
Test tubes were divided into 4 groups: Group 1 as negative comparative group(n=3), Group 2 as positive comparative group(n=3), Group 3(n=5) to be administered with the compound of the present invention and Group 4(n=5) to be administered with the comparative compound. The inhibitory effects of proton pump activity of Groups 3 and 4 were measured by employing the compound prepared in Example 34 and omeprazole, respectively, each of which was dissolved in dimethylsulfoxide at 5 different concentrations.
To each of Groups 1, 2, 3 and 4, were added 0.1 ml of magnesium chloride(40 mM) dissolved in 50 mM Tris-HCl buffer (pH 7.2) and […] of the enzyme source prepared in Experiment 1-1. Then, 0.1 ml of potassium chloride(500 mM) and 0.1 ml of ammonium chloride(100 mM) dissolved in 50 mM Tris-HCl buffer(pH 7.2) were added to all groups except for Group 1.
0.1 ml of dimethylsulfoxide was added to each of Groups 1 and 2; and to Group 3 was added 0.01 ml of the solution in which the compound prepared in Example 34 was dissolved in dimethylsulfoxide at 5 different concentrations. To Group 4, 0.01 ml of the solution prepared by dissolving omprazole in dimethylsulfoxide at 5 different concentrations(37.6, 21.4, 12.2, 7.0 and 4.0 μM) was added. 50 mM Tris-HCl buffer was added thereto so as to make the total volume 0.4 ml.
Thereafter, the test tubes of each Group were placed at 37° C. for 15 minutes for the prereaction. 0.1 ml of ATP solution(33.3 mM), which was prepared by adding Tris-ATP 50 mM to Tris-HCl buffer having pH 7.2, was added until the reaction volume became 0.5 ml. The final concentrations of MgCl2, KCl, NH4 Cl, ATP, enzyme and Tris-HCl were 8 mM, 100 mM, 20 mM, 6.7 mM, 100μg/ml and 50 mM, respectively. After the reaction was carried out at 37° C. for 30 minutes, 25% cold trichloroacetic acid was added to terminate the enzyme reaction. The released inorganic phosphate was measured by an automatic analyzer(SBA 300, Gilford).
The difference between Group 1 and Group 2 represents the proton pump activity activated by K^+ only. The inhibition percentages of Groups 3 and 4 were calculated from Litchfield-wilcoxon equation[see J. Pharmacol. Exptl. Ther. 96, 99(1949)]. The concentrations of the test compounds which inhibit 50% of the proton pump activity are represented as IC50 in Table 1.

In another assay the test system is gastric secretion. As to the kind of experiment: Inhibition of Gastric Secretion, pylorus-ligated rats (Experiment 2). In kind it is in vivo, Sprague-Dawley rats. The settings on record: relative to omeprazole (equation III), 20 mg/kg intraduodenally, pylorus-ligated rats, 5 hours. The protocol: In accordance with the method disclosed in Shay, H., et al., Gastroenterology 5, 43-61(1945), Experiment 2 was carried out.
Sprague-Dawley rats having a body weight of 170±10 g were divided into 3 groups(n=5) and deprived of food for 24 hours before the experiment with free access to water. Under ether anesthesia, the abdomen was incised, and the pylorus was ligated. As a comparative group, Group 1 was administered intraduodenally in a volume of 0.5 ml/200 g of 30% aqueous polyethylene glycol 400 solution. Groups 2 and 3 were administered intraduodenally with the compound of Example 34 and omeprazole, respectively, each of which was suspended in 30% aqueous polyethylene glycol 400 solution at a concentration of 20 mg/kg. After closing the abdominal cavity, the rats were placed for 5 hours and then killed by cervical dislocation. The stomach was extracted to obtain gastric juice.
The gastric juice was centrifuged at 1,000 g to remove precipitates. The amount and acidity of the gastric juice were measured. Relative volumes, relative acid concentrations and relative acid outputs of the test compounds were calculated from equations(I), (II) and (III) and the results are shown in Table 2.
(I) = the average amount of gastric juice of Group 1 - the
average amount of gastric juice of Group 2)/(the average
amount of gastric juice of Group 1 - the average amount
of gastric juice of Group 3)
Relative acid concentration
(II) = (the average acidity of Group 1 - the average
acidity of Group 2)/(the average acidity of Group 1 - the average
(III) = (the total amount of acid output of Group 1 - the
total amount of acid output of Group 2)/(the total amount of acid
output of Group 1 - the total amount of acid output of Group

Counter-ions that a name gives are not always drawn.

T1 sequence (P27112 whole entry): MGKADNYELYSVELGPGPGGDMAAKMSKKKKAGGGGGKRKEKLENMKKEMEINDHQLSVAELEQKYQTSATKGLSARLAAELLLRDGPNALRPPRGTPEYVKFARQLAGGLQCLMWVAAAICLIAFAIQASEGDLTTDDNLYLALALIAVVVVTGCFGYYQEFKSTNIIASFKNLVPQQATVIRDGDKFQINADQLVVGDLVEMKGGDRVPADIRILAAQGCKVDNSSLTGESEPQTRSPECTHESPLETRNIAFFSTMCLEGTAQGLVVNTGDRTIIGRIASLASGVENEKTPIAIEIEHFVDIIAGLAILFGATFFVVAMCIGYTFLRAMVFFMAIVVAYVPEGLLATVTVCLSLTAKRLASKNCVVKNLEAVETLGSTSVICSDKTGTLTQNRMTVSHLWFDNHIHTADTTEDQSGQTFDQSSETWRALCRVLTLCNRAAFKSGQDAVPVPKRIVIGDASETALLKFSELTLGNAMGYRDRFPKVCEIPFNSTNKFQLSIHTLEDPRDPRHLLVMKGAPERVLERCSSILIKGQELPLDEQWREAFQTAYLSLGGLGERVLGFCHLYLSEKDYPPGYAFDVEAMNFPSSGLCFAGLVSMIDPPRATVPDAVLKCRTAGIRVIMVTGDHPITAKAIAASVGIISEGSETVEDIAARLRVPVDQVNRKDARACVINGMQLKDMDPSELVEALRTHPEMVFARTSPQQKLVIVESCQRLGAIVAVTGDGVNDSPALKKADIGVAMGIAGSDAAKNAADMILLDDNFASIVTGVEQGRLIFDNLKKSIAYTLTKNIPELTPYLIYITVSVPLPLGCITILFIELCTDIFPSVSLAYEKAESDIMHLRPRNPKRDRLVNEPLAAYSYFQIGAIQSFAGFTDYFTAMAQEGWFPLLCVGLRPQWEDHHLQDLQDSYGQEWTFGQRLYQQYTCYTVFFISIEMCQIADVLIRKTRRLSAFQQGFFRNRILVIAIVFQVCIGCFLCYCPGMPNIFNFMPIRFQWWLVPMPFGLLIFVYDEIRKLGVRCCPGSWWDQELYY
T1 sequence (P18597 whole entry partner): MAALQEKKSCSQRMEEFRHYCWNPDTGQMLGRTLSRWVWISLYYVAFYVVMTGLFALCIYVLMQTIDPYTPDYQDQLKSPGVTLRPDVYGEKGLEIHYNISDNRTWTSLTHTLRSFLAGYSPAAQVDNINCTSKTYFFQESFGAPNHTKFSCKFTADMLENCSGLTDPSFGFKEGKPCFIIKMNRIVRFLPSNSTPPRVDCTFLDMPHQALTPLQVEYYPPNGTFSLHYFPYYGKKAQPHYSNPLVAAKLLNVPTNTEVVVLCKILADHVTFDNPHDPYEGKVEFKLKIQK

As for `Cl.c1ccc(Nc2nc(N3CCc4ccccc4C3)c3ccccc3n2)cc1` [Example 18, 2-(Phenylamino)-4-(1,2,3,4-Tetrahydroisoquinoline-2-Yl)Quinazoline Hydrochloride], in assay [1], the Effect ratio is given as 61.67 and the IC50 worked out at 0.6 µM. Besides, the “Relative Acid Output” value in the assay with gastric secretion was found to be 0.29.
Turning to `CN(c1ccccc1)c1nc(N2CCc3ccccc3C2)c2ccccc2n1` [Example 19, 2-(N-Methylphenylamino)-4-(1,2,3,4-Tetrahydroisoquinoline-2-Yl)QuinazolineHydrochloride], in assay [1], the Effect ratio turned out to be 1.83 and the IC50 was 5.2 µM. The “Relative Acid Output” value in the assay on gastric secretion came to 0.68.
In the same order, the values of `CN(c1ccc(F)cc1)c1nc(N2CCc3ccccc3C2)c2ccccc2n1.Cl` [Example 20, 2-(4-Fluoro-N-Methylphenyl-Amino)-4-(1,2,3,4-Tetrahydroisoquinoline-2-Yl)Quinazoline Hydrochloride] are 1.10, 8.4 µM and 0.92.
In the same order, the values of `Cc1ccccc1Nc1nc(N2CCc3ccccc3C2)c2ccccc2n1` [Example 21, 2-(2-Methylphenylamino)-4-(1,2,3,4-Tetrahydroisoquinoline-2-Yl)QuinazolineHydrochloride] are 6.17, 1.2 µM and 0.38.
On the same counts, the results for `Cc1cc(F)ccc1Nc1nc(N2CCc3ccccc3C2)c2ccccc2n1.Cl` [Example 22, 2-(4-Fluoro-2-Methylphenyl -Amino)-4-(1,2,3,4-Tetrahydroisoquinoline-2-Yl)Quinazoline Hydrochloride] are 11.29, 0.7 µM and 0.64.
As to `Fc1ccc(Nc2nc(N3CCc4ccccc4C3)c3ccccc3n2)cc1` [Example 23, 2-(4-Fluorophenylamino)-4-(1,2,3,4-Tetrahydroisoquinoline-2-Yl)QuinazolineHydrochloride], in assay [1], the Effect ratio was found to be 4.30 and the IC50 stood at 2 µM. For the same molecule, the “Relative Acid Output” value in the assay on gastric secretion is on record as 0.44.
In the same order, the values of `CC1c2ccccc2CCN1c1nc(N(C)c2ccccc2)nc2ccccc12.Cl` (stereo not drawn) [Example 24, 2-(N-Methylphenylamino)-4-(1-Methyl-1,2,3,4-Tetrahydroisoquinoline-2-Yl)Quinazoline Hydrochloride] are ~ 1.29, approximately 12.5 µM and 0.36.
As for `CC1c2ccccc2CCN1c1nc(Nc2ccc(F)cc2)nc2ccccc12.Cl` (stereo not drawn) [Example 25, 2-(4-Fluorophenylamino)-4-(1-Methyl-1,2,3,4-Tetrahydroisoquinoline-2-Yl)Quinazoline Hydrochloride], in assay [1], the Effect ratio worked out at 5.88 and the IC50 is 2.7 µM. Further, in the assay on gastric secretion, the “Relative Acid Output” value is given as 0.50.
Take `Cc1cc(F)ccc1Nc1nc(N2CCc3ccccc3C2C)c2ccccc2n1.Cl` (stereo not drawn) [Example 26, 2-(4-Fluoro-2-Methylphenyl-Amino)-4-(1-Methyl-1,2,3,4-Tetrahydroisoquinoline-2-Yl) Quinazoline Hydrochloride]: in assay [1], the Effect ratio was determined as 46.00 and the IC50 amounted to 0.4 µM. Also, the “Relative Acid Output” value in the assay on gastric secretion was 0.25.
In the case of `Cc1cc(F)ccc1Nc1nc(N2CCc3cccc4c3C2CC4)c2ccccc2n1.Cl` (stereo not drawn) [Example 27, 2-(4-Fluoro-2-Methylphenyl-Amino)-4-(1,8-Ethano-1,2,3,4-Tetrahydroisoquinoline-2-Yl) Quinazoline Hydrochloride], in assay [1], the Effect ratio is recorded as 1.97 and the IC50 was 2.9 µM. In the assay with gastric secretion, the “Relative Acid Output” value came to 0.30.
With `COc1cccc2c(N3CCc4ccccc4C3)nc(Nc3ccccc3)nc12.Cl` [Example 28, 8-Methoxy-2-(phenylamino)-4-(1,2,3,4-Tetrahydroisoquinoline-2-Yl)Quinazoline Hydrochloride], in assay [1], the Effect ratio is on record as 6.92 and the IC50 worked out at 1.2 µM. In addition, the “Relative Acid Output” value in the assay on gastric secretion worked out at 0.64.
